Source: patent US20230384330A1, “COMPOSITIONS AND METHODS RELATING TO THE IDENTIFICATION AND TREATMENT OF IMMUNOTHROMBOTIC CONDITIONS” (THE REGENTS OF THE UNIVERSITY OF MICHIGAN, priority 2020, published 2023)
Entries after “also recorded” stand apart in the source; their conditions may differ.

Columns and labels:
CD142/TF [1] = experiment: CD142/TF expression in PBMC stimulated with TLR ligands, mass cytometry; type: cell-based, human; conditions: PBMC from HC stimulated 4 h, vs no treated (NT) controls
Description: FIGS. 12A-12C: Inflammatory mediators increase CD142/TF expression and activity in monocytes. A) PBMC were isolated from HC and stimulated with Pam2CSK4(TLR2), Poly(I:C) (TLR3), and LPS (TLR4) for 4 h. […] Circles represent CD14+ monocytes. B) PBMC were isolated and stimulated with LPS and Ang II (vascular activator) and TF activity was quantified based on the ability of TF/FVIIa to activate FX to factor Xa. The amidolytic activity of the TF/FVIIa complex is quantitated by the amount of FXa produced using a FXa substrate which releases a chromophore upon cleavage. *p<0.05. C) To probe for the mechanisms that regulate TF expression in circulating monocytes, PBMC were isolated and stimulated with LPS with or without Annexin V (AnnV) to block apoptotic sensing (through masking of PS on target cells/particles) in monocytes. […] Results representative of 3 independent experiments.
To determine if inflammatory mediators can drive monocyte TF expression, CD14+ monocytes were isolated from PBMCs and stimulated with TLR ligands (Pam2Csk4; Poly(I:C); LPS) for 4 hours.
Measurement of inflammatory mediated TF expression. To determine if inflammatory mediators can drive monocyte TF expression, CD14+ monocytes were isolated from peripheral blood mononuclear cells (PBMC) and were stimulated with TLR ligands (Pam2Csk4; Poly(I:C); LPS) for 4 hours. To assess if monocyte-bound TF is active, a FXa activity assay was used. CD14+ monocytes were stimulated with LPS and FXa activity was assessed as a marker of TF activity.

STAT1 = experiment: Signal pathway activation in monocytes/PBMC treated with LPS and heparin, microfluidic proteomics (phospho-STAT1); type: cell-based, human; conditions: LPS 1 ug/ml 4 h cotreated with heparin 10 u/ml, vs LPS alone
p-p65 and p-PKC = experiment: Signal pathway activation in CD14+ monocytes treated with LPS and heparin, microfluidic proteomics (p-p65, p-PKC); type: cell-based, human; conditions: LPS 1 ug/ml 4 h and heparin 10 u/ml, between groups
Description: (§1) FIGS. 3A-3B: Heparin augments type I IFN/STAT1 signaling and tends to blunt CD142/TF transcriptional induction in response to LPS. A) CD14+ monocytes were stimulated with LPS (1 ug/ml; 4 h) and heparin (Hep) (10 u/ml) and signal pathway activation was probed using microfluidic proteomics. […] However, phospo-STAT1 activation was augmented in monocytes cotreated with LPS and Hep. Normalized activation determined by normalizing phospho proteins to total protein. B) qRT-PCR of CD14+ monocytes treated with LPS with and without Hep. […] Fold-change determined normalizing to GAPDH and to NT groups. *p<0.05; #p=0.07
PBMC treatment and stimulation. Approximately 10 million cells were equally divided into 4 fractions and treated with the following (for Hep experiments): 1) Hep (1.5 U/mL), 2) LPS (1 μg/mL), 3) LPS+Hep (1 μg/mL LPS with 1.5 U/mL Hep), and 4) RPMI medium alone. All treatments were performed for 2 hours in suspension at 37° C. and 5% CO2 with gentle vortexing every 30 minutes to prevent cell sedimentation. After 2-hour incubation, cells were centrifuged, and supernatants were collected. Cells were then resuspended in 1 mL PBS (without Ca^2+ and Mg ^2+) for downstream analysis

PBMC = experiment: Signaling pathway activation and inflammatory transcriptional programs in PBMC, heparin alone; type: cell-based, human
CD142/TF [2] = experiment: qRT-PCR of CD142/TF in CD14+ monocytes treated with LPS with and without heparin; type: cell-based, human
Description: as §1
PCR gene expression assay. RNA was then eluted in 32 uL RNase free water and concentration and purity were measured using Nanodrop. Applied Biosystems High-Capacity cDNA Reverse Transcription kit was used to convert RNA into cDNA for qPCR per the manufacturer's instructions. PCR was performed in 96 well plate using Taqman master mix and Taqman primers. 1× GAPDH-VIC and 1× target gene-FAM was used for each PCR reaction as housekeeping control gene and target gene respectively (total of 20 μL reaction volume). “No treatment control” is used to normalize each target gene expression for analysis of experimental groups.

CD142/Tissue factor = CD142/Tissue factor expression on PBMC populations by flow cytometry; type: cell-based, human; conditions: for CD142 expression (percent positive CD142+) in monocytes and granulocytes: PBMCs, 1 ug/mL LPS or 155 ug/mL LpA, 4 hours; for CD142/Tissue factor induction by LPS: PBMC pre-treated 1 hr with Annexin V 10 ug/ml, then LPS 1 ug/ml 4 hours
Description: (§2) FIGS. 2A-2B: Monocytes activated by inflammatory stimuli increase TF/CD142 expression and activity. PBMC were isolated from healthy controls and stimulated with LPS (1 ug/ml for 4 h) and compared with no treatment (NT) controls. […] B) Tissue factor activity was assessed in both cells and supernatants in PBMC treated with LPS (1 ug/ml for 4 h). The tissue factor activity was quantified based on the ability of TF/FVIIa to activate FX to factor Xa. The amidolytic activity of the TF/FVIIa complex is quantitated by the amount of FXa produced using a highly specific FXa substrate which releases a chromophore upon cleavage. *p<0.05.
(§3) FIGS. 5A-5C: Annexin V peptide pretreatment blocks LPS induction of CD142/Tissue factor and CD142/Tissue factor activity. PBMC were pre-treated for 1 hr with Annexin V (10 ug/ml) or PBS and then stimulated with LPS (1 ug/ml) for 4 hours. PBMC were analyzed with either flow cytometry or tissue factor activity assay. A) Representative SSC vs. FSC gating strategy for Monocytes and Lymphocytes; B) CD142/Tissue factor was assessed by flow cytometry. Annexin V pre-treatment blocks CD142/Tissue factor induction by LPS. C). CD142/Tissue factor activity using substrate cleavage and FXa generation. Results are representative of three independent experiments. *p<0.05
PBMCs were isolated and treated with 1 ug/mL LPS, 155 ug/mL LpA, or a combination of the above for 4 hours with gentle vortexing every 30 minutes. Cells were blocked with Tru-Stain FcX for 10 minutes and then treated with human anti CD142-PE for 30 minutes on ice. Cells were then analyzed via flow cytometry. (A) Representative FSC vs. SSC gating strategy. (B) Percent positive CD142+ for lymphocytes. (C) Percent positive CD142+ for monocytes. (D) Percent positive CD142+ for granulocytes. N=3. *p-value<0.0001 (ANOVA).

TF/FVIIa complex = experiment: Tissue factor activity assay (TF/FVIIa activation of FX to FXa, chromogenic substrate) in PBMC; type: cell-based, human
Description: as §2
as §3, with “Annexin V pre-treatment blocks CD142/Tissue factor induction by LPS. C). CD142/Tissue factor activity using substrate cleavage and FXa generation. Results are representative of three independent experiments. *p<0.05” left out
Active TF catalyzes the conversion of factor X to Xa; TF activity in plasma, microvesicles, and monocytes were measured by quantifying factor Xa activity using the fluorogenic factor Xa substrate (Abcam). TF activity was quantified based on the ability of TF/FVIIa to activate FX to FXa. […]

NFκB = NFκB activation in THP1-Dual monocytes (SEAP, QUANTI-Blue assay); type: cell-based, human; conditions: 24 h, 77.5 ug/mL Lp(a)
Description: FIG. 10: Lp(a) increases NFκB induction on THP1-Dual monocytes; addition of TLR2 decreases activation effect of Lp(a). THP1-Dual monocytes stimulated for 24 h with 77.5 ug/mL Lp(a), 77.5 μg/mL Lp(a)+10 μg/mL TR2, 77.5 μg/mL Lp(a)+10 μg/mL TR4, and 100 ng/mL Pam2CSK4. After 24 h stimulation, supernatant was collected and NFκB activation was assessed by measuring the levels of SEAP using QUANTI-Blue assay. Levels of SEAP were determined by reading the optical density at 640 nm. *p-value<0.0001 (ANOVA).
THP1-Dual monocytes stimulated for 24 h with 77.5 ug/mL Lp(a), 77.5 ug/mL Lp(a)+10 ug/ml TLR2, 77.5 ug/ml Lp(a)+10 ug/ml TLR4, and 100 ng/mL Pam2CSK4. After 24 h stimulation, supernatant was collected and NFkB activation was assessed by measuring the levels of SEAP using QUANTI-Blue assay. Levels of SEAP were determined by reading the optical density at 640 nm. *p-value<0.0001 (ANOVA). […] THP1-Dual monocytes stimulated for 24 h with 77.5 ug/mL Lp(a), 77.5 ug/mL Lp(a)+10 ug/ml TLR2, 77.5 ug/ml LpA+10 ug/ml TLR4, and 100 ng/mL Pam2CSK4. After 24 h stimulation, supernatant was collected and IRF activation was assessed by measuring the levels of Lucia luciferase using QUANTI-Luc assay. Levels of Lucia luciferase were determined by measuring the relative light units (RLUs) in a luminometer at a 100 ms reading time.

## Pam2CSK4
CD142/TF [1]
  CD142/TF expression (viSNE plots, CD14+ monocytes): increased CD142/TF expression

## Poly(I:C)
CD142/TF [1]
  CD142/TF expression (viSNE plots, CD14+ monocytes): increased CD142/TF expression

## heparin
STAT1
  phospho-STAT1 activation (phospho protein normalized to total protein): augmented; also recorded: increases in STAT1 activation
p-p65 and p-PKC
  p-p65 and p-PKC activation: no differences
PBMC
  signaling pathway activation or inflammatory transcriptional programs: no effects
CD142/TF [2]; cotreatment with LPS and heparin, fold-change normalized to GAPDH and NT, #p=0.07
  transcriptional induction of CD142/TF by LPS: trend to blunted transcriptional expression; also recorded: seemed to blunt
PBMCs
  cytotoxicity: not cytotoxic

## lipopolysaccharide [LPS]
CD142/TF [1]
  CD142/TF expression (viSNE plots, CD14+ monocytes): increased CD142/TF expression
CD142/Tissue factor; LPS 1 ug/ml, 2-4 h, vs no treatment (NT)
  CD142/TF expression in monocytes: induce TF expression; also recorded: rapid and robust induction; also recorded: rapidly drives TF expression
CD142/Tissue factor
  CD142 expression (percent positive CD142+) in monocytes and granulocytes: upregulated
CD142/Tissue factor; response to LPS
  TF induction in purified CD14+ Mϕ compared with bulk PBMC stimulation: much less TF induction
CD142/TF [2]; LPS alone, CD14+ monocytes, vs NT
  CD142/TF transcriptional expression: induced
TF/FVIIa complex; PBMC/monocytes stimulated with inflammatory stimulus, vs untreated
  TF activity (FXa production): increases TF activity

## lipoprotein (a) [Lp(a)]
CD142/Tissue factor
  CD142 expression (percent positive CD142+) in monocytes and granulocytes: upregulated
NFκB
  NFκB induction (SEAP, optical density at 640 nm): increases

B1: Annexin V (protein, UniProt P08758 2-320, looked up)
Annexin A5: AQVLRGTVTDFPGFDERADAETLRKAMKGLGTDEESILTLLTSRSNAQRQEISAAFKTLFGRDLLDDLKSELTGKFEKLIVALMKPSRLYDAYELKHALKGAGTNEKVLTEIIASRTPEELRAIKQVYEEEYGSSLEDDVVGDTSGYYQRMLVVLLQANRDPDAGIDEAQVEQDAQALFQAGELKWGTDEEKFITIFGTRSVSHLRKVFDKYMTISGFQIEETIDRETSGNLEQLLLAVVKSIRSIPAYLAETLYYAMKGAGTDDHTLIRVMVSRSEIDLFNIRKEFRKNFATSLYSMIKGDTSGDYKKALLLLCGEDD
CD142/Tissue factor
  CD142/Tissue factor induction by LPS: blocks
CD142/Tissue factor; listed as AnnV
  CD142/Tissue factor induction by LPS: greatly reduced
CD142/Tissue factor; listed as annexin V
  CD142/Tissue factor induction by LPS: dramatic blunting
TF/FVIIa complex; PBMC pre-treated 1 hr with Annexin V 10 ug/ml, then LPS 1 ug/ml 4 hours
  CD142/Tissue factor activity (FXa generation) induced by LPS: blocks
